Measured values published in patent publication US11312712B2, “Azabenzimidazoles and their use as AMPA receptor modulators” (Janssen Pharmaceutica NV, priority 2015, dated 2022).

These molecules were tested against GluA1o-γ8 (GRIA1o-CACNG8 fusion construct) (Homo sapiens (Human), UniProt P42261+Q8WXS5) (assay: Calcium flux assay (FLIPR), inhibition of TARP γ8 dependent AMPA receptor activity). Details: GluA1o-γ8 (GRIA1o-CACNG8 fusion) in HEK293 cells, calcium flux after 15 μM glutamate.
Assay type: cell-based
Summary of the method: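 HEK293 cells stably expressing a 1:1 GRIA1o–CACNG8 fusion were loaded with Calcium-5/6 dye plus compound in pH 7.4 HEPES-buffered saline. FLIPR calcium flux after 15 μM glutamate was normalized to untreated and 10 μM CP465022 controls, and a four-parameter logistic fit gave pIC50.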

Sequence of GluA1o-γ8 (GRIA1o-CACNG8 fusion construct) (P42261 other isoform, or with tags, fused parts or gaps): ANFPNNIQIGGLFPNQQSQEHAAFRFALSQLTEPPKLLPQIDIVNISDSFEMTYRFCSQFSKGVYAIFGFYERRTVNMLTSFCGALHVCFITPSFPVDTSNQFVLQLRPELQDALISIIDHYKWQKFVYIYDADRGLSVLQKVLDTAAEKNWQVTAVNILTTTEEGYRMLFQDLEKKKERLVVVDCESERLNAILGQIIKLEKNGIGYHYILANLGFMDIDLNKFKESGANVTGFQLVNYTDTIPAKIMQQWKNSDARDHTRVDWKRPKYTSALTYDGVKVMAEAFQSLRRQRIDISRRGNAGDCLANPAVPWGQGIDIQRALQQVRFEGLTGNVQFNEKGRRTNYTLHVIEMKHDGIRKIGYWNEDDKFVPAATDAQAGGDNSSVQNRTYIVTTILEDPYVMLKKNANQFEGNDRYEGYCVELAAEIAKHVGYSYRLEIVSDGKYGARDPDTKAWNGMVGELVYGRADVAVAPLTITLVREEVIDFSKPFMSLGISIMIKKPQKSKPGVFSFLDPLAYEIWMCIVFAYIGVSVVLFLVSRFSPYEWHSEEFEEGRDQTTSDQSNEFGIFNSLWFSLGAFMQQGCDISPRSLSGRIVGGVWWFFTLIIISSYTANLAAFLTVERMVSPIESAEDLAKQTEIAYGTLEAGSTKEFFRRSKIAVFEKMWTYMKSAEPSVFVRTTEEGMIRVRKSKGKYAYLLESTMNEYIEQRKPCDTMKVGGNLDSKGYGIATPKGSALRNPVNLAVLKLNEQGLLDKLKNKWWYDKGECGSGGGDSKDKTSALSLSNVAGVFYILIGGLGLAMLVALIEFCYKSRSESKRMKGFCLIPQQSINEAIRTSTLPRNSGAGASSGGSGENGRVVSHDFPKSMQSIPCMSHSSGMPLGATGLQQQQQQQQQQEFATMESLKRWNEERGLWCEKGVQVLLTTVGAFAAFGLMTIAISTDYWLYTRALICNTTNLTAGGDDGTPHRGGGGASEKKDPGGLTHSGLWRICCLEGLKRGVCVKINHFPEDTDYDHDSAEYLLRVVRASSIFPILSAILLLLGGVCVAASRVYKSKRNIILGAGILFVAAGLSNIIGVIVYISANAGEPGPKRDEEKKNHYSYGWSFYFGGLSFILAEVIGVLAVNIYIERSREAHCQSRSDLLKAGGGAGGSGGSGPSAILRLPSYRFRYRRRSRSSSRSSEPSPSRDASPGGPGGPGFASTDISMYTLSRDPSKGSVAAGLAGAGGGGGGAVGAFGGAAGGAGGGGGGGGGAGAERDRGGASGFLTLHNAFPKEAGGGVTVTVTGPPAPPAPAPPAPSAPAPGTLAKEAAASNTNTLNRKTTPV

| SMILES | IC50 [nM] |
| --- | --- |
| CC(C)(C)Oc1ccc2cc(-c3ccc(F)cc3)n(-c3ccc4[nH]ccc4c3)c2n1 [Example 386, 6-tert-Butoxy-2-(4-fluorophenyl)-1-(1H-indol-5-yl)pyrrolo[2,3-b]pyridine] | 1580 |
| Fc1ccc(-c2cc3ccc(C(F)(F)F)nc3n2-c2ccc3[nH]ccc3c2)cc1 [Example 387, 2-(4-Fluorophenyl)-1-(1H-indol-5-yl)-6-(trifluoromethyl)pyrrolo[2,3-b]pyridine] | 6.31 |
| FC(F)(F)c1ccc2cc(-c3ccccc3)n(-c3ccc4[nH]ccc4c3)c2n1 [Example 388, 1-(1H-Indol-5-yl)-2-phenyl-6-(trifluoromethyl)pyrrolo[2,3-b]pyridine] | 7.94 |
| O=C1Cc2cc(-n3c(C4CC4)c(Br)c4ccc(C(F)(F)F)nc43)ccc2N1 [Example 389, 5-[3-Bromo-2-cyclopropyl-6-(trifluoromethyl)pyrrolo[2,3-b]pyridin-1-yl]indolin-2-one] | 0.0631 |
| Cc1ccc2cc(-c3ccccc3)n(-c3cnc4[nH]ccc4c3)c2n1 [Example 390, 6-Methyl-2-phenyl-1-(1H-pyrrolo[2,3-b]pyridin-5-yl)pyrrolo[2,3-b]pyridine] | 1.26 |
| CC(C)c1cc2ccc(C(F)(F)F)nc2n1-c1cnc2[nH]ccc2c1 [Example 391, 2-Isopropyl-1-(1H-pyrrolo[2,3-b]pyridin-5-yl)-6-(trifluoromethyl)pyrrolo[2,3-b]pyridine] | 0.631 |
| Cc1ccc2c(Br)c(-c3ccccc3)n(-c3cnc4c(c3)CC(=O)N4)c2n1 [Example 393, 5-(3-Bromo-6-methyl-2-phenyl-pyrrolo[2,3-b]pyridin-1-yl)-1,3-dihydropyrrolo[2,3-b]pyridin-2-one] | 3.16 |
| CC(C)c1c(Br)c2ccc(C(F)(F)F)nc2n1-c1cnc2c(c1)CC(=O)N2 [Example 394, 5-[3-Bromo-2-isopropyl-6-(trifluoromethyl)pyrrolo[2,3-b]pyridin-1-yl]-1,3-dihydropyrrolo[2,3-b]pyridin-2-one] | 31.6 |
| Cc1c(Br)c2ccc(C(F)(F)F)nc2n1-c1cnc2c(c1)CC(=O)N2 [Example 395, 5-[3-Bromo-2-methyl-6-(trifluoromethyl)pyrrolo[2,3-b]pyridin-1-yl]-1,3-dihydropyrrolo[2,3-b]pyridin-2-one] | 25.1 |
| CC(C)c1cc2ccc(C(F)(F)F)nc2n1-c1ccc2c(c1)CC(=O)N2 [Example 396, 5-[2-Isopropyl-6-(trifluoromethyl)pyrrolo[2,3-b]pyridin-1-yl]indolin-2-one] | 0.0126 |
| O=C1Cc2cc(-n3c(-c4ccccc4)cc4ccc(C(F)(F)F)nc43)ccc2N1 [Example 397, 5-[2-Phenyl-6-(trifluoromethyl)pyrrolo[2,3-b]pyridin-1-yl]indolin-2-one] | 0.0398 |
| O=C1Cc2cc(-n3c(-c4ccc(F)cc4)cc4ccc(C(F)(F)F)nc43)ccc2N1 [Example 398, 5-[2-(4-Fluorophenyl)-6-(trifluoromethyl)pyrrolo[2,3-b]pyridin-1-yl]indolin-2-one] | 0.0631 |
| O=C1Cc2cc(-n3c(C4CC4)cc4ccc(C(F)(F)F)nc43)ccc2N1 [Example 399, 5-[2-Cyclopropyl-6-(trifluoromethyl)pyrrolo[2,3-b]pyridin-1-yl]indolin-2-one] | 0.0251 |
| Cc1ccc2cc(-c3ccccc3)n(-c3cnc4c(c3)CC(=O)N4)c2n1 [Example 400, 5-(6-Methyl-2-phenyl-pyrrolo[2,3-b]pyridin-1-yl)-1,3-dihydropyrrolo[2,3-b]pyridin-2-one] | 0.251 |
| CC(C)c1cc2ccc(C(F)(F)F)nc2n1-c1cnc2c(c1)CC(=O)N2 [Example 401, 5-[2-Isopropyl-6-(trifluoromethyl)pyrrolo[2,3-b]pyridin-1-yl]-1,3-dihydropyrrolo[2,3-b]pyridin-2-one] | 0.0316 |
| Cc1cc2ccc(C(F)(F)F)nc2n1-c1cnc2c(c1)CC(=O)N2 [Example 402, 5-[2-Methyl-6-(trifluoromethyl)pyrrolo[2,3-b]pyridin-1-yl]-1,3-dihydropyrrolo[2,3-b]pyridin-2-one] | 10 |
| CCc1cc2cccnc2n1-c1cc(C)c2c(c1)CC(=O)N2 [Example 403, 5-(2-Ethylpyrrolo[2,3-b]pyridin-1-yl)-7-methyl-indolin-2-one] | 1.26 |
| Cc1ccc2nc(C(C)(F)F)n(-c3cc(Cl)c4[nH]ncc4c3)c2n1 [Example 410, 3-(7-Chloro-1H-indazol-5-yl)-2-(1,1-difluoroethyl)-5-methyl-3H-imidazo[4,5-b]pyridine] | 1.26 |
| FC(F)(F)c1ccc2nc(CC3CC3)n(-c3cc(Cl)c4[nH]ncc4c3)c2n1 [Example 411, 3-(7-Chloro-1H-indazol-5-yl)-2-(cyclopropylmethyl)-5-(trifluoromethyl)-3H-imidazo[4,5-b]pyridine] | 0.158 |
| CCCc1nc2ccc(C(F)(F)F)nc2n1-c1cc(Cl)c2[nH]ncc2c1 [Example 412, 3-(7-Chloro-1H-indazol-5-yl)-2-propyl-5-(trifluoromethyl)-3H-imidazo[4,5-b]pyridine] | 0.126 |
| COCc1nc2ccc(C(F)(F)F)nc2n1-c1cc(Cl)c2[nH]ncc2c1 [Example 413, 3-(7-Chloro-1H-indazol-5-yl)-2-(methoxymethyl)-5-(trifluoromethyl)-3H-imidazo[4,5-b]pyridine] | 0.398 |
| CC(C)Cc1nc2ccc(C(F)(F)F)nc2n1-c1cc(Cl)c2[nH]ncc2c1 [Example 414, 3-(7-Chloro-1H-indazol-5-yl)-2-isobutyl-5-(trifluoromethyl)-3H-imidazo[4,5-b]pyridine] | 0.126 |
| COc1ccc2nc(C(F)(F)F)n(-c3cc(Cl)c4[nH]ncc4c3)c2n1 [Example 415, 3-(7-Chloro-1H-indazol-5-yl)-5-methoxy-2-(trifluoromethyl)-3H-imidazo[4,5-b]pyridine] | 0.0501 |
| FC(F)(F)Cc1nc2ccc(C(F)(F)F)nc2n1-c1cc(Cl)c2[nH]ncc2c1 [Example 416, 3-(7-Chloro-1H-indazol-5-yl)-2-(2,2,2-trifluoroethyl)-5-(trifluoromethyl)-3H-imidazo[4,5-b]pyridine] | 0.501 |
| CCC(F)(F)c1nc2ccc(C(F)(F)F)nc2n1-c1cc(C)c2[nH]ncc2c1 [Example 417, 2-(1,1-Difluoropropyl)-3-(7-methyl-1H-indazol-5-yl)-5-(trifluoromethyl)-3H-imidazo[4,5-b]pyridine] | 3.16 |
| Cc1cc(-n2c(CCC(F)(F)F)nc3ccc(C(F)(F)F)nc32)cc2cn[nH]c12 [Example 418, 3-(7-Methyl-1H-indazol-5-yl)-5-(trifluoromethyl)-2-(3,3,3-trifluoropropyl)-3H-imidazo[4,5-b]pyridine] | 3.98 |
| FC(F)(F)c1cnc2c(c1)nc(C(F)(F)F)n2-c1cc(Cl)c2[nH]ncc2c1 [Example 419, 3-(7-Chloro-1H-indazol-5-yl)-2,6-bis(trifluoromethyl)-3H-imidazo[4,5-b]pyridine] | 0.631 |
| Cc1cc(-n2c(C(C)C)cc3cc(F)cnc32)cc2c1NC(=O)C2 [Example 420, 5-(5-Fluoro-2-isopropyl-1H-pyrrolo[2,3-b]pyridin-1-yl)-7-methylindolin-2-one] | 0.126 |
| Cc1cc(-n2c(C)cc3ccc(C(F)F)nc32)cc2c1NC(=O)C2 [Example 421, 5-(6-(Difluoromethyl)-2-methyl-1H-pyrrolo[2,3-b]pyridin-1-yl)-7-methylindolin-2-one] | 0.0794 |
| Cc1cc(-n2c(C=O)cc3ccc(C(F)(F)F)nc32)cc2c1NC(=O)C2 [Example 422, 1-(7-Methyl-2-oxoindolin-5-yl)-6-(trifluoromethyl)-1H-pyrrolo[2,3-b]pyridine-2-carbaldehyde] | 0.316 |
